Patent US20020137929A1, “1 - (3-heterocyclylphenyl) isothiourea, -isourea, -guanidine and -amidine herbicidal agents” (Intellectual Property Department, BASF Aktiengesellschaft, priority 1998, published 2002)

Assays:
CASOB (Sicklepod) = assay: Postemergence herbicidal evaluation; type: in vivo, Cassia obtusifolia
Method in brief: (§1)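 Young plants, roughly two weeks from seeding, receive the active ingredient as a sprayed dispersion (acetone/water 50/50, 0.5% TWEEN 20) at 40 psi. Doses span about 0.0156 to 0.500 kg/ha. A visual score from 0 to 9 compares treated with control plants four to five weeks on.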

GALAP (Galium) = assay: Postemergence herbicidal evaluation; type: in vivo, Galium aparine
Method in brief: as §1

ZEAMX (Corn, Field) [1] = assay: Postemergence herbicidal evaluation; type: in vivo, Zea mays
Method in brief: as §1

AMBEL (Ragweed, Common) = assay: Preemergence herbicidal evaluation; type: in vivo, Ambrosia artemisifolia; conditions: rated 4-5 weeks after treatment
Method in brief: (§2)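 Steps: mix seeds into potting soil; plant atop ~1 inch soil; spray compound in aqueous acetone (~0.0156-0.500 kg/ha equivalent); maintain in greenhouse with watering; rate visually 0-9 versus control at 4-5 weeks.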

[2] = test system: CHEAL (Lambsquarters, Common); assay: Preemergence herbicidal evaluation; type: in vivo, Chenopodium album; conditions: rated 4-5 weeks after treatment
Method in brief: as §2

[3] = test system: IPOHE (Morningglory, Ivyleaf); assay: Preemergence herbicidal evaluation; type: in vivo, Ipomoea hederacea; conditions: rated 4-5 weeks after treatment
Method in brief: as §2

ORYSAT (Rice, Tebonnet) = assay: Preemergence herbicidal evaluation; type: in vivo, Oryza sativa, (L.) Tebonnet; conditions: rated 4-5 weeks after treatment
Method in brief: as §2

[4] = test system: TRZAWR (Wheat, Winter, cv Riband); assay: Preemergence herbicidal evaluation; type: in vivo, Triticum aestivum; conditions: rated 4-5 weeks after treatment
Method in brief: as §2

ZEAMX (Corn, Field) [5] = assay: Preemergence herbicidal evaluation; type: in vivo, Zea mays; conditions: rated 4-5 weeks after treatment
Method in brief: as §2

[6] = test system: ECHORC (Watergrass (Calif.)); assay: Preemergence weed control under flooded paddy conditions; type: in vivo, Echinochloa oryzoides; conditions: rated 3-4 weeks after treatment
Method in brief: (§3)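 First, seeds or propagules go into the top 0.5 cm of silt loam; next, water is held 1.5 to 3 cm over the soil; then compound (50/50 acetone/water) is pipetted into it at about 0.0313 to 0.500 kg/ha; finally plants are rated visually 0-9 after three to four weeks.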

CYPIR (Rice Flatsedge) = assay: as above; type: in vivo, Cyperus iria; conditions: rated 3-4 weeks after treatment
Method in brief: as §3

CYPSE (Flatsedge) [7] = assay: as above; type: in vivo, Cyperus serotinus; conditions: rated 3-4 weeks after treatment
Method in brief: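 Greenhouse paddy assay. Acetone/water (50/50 v/v) solutions dosed into flood water, equivalent to about 0.0313 to 0.500 kg/ha active ingredient, over seeds planted 0.5 cm deep in silt loam. Score: 0-9 visual, based on stand, vigor, malformation, size and chlorosis, 3 to 4 weeks after treatment.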

[8] = test system: ECHORC (Watergrass (Calif.)); assay: Postemergence weed control under flooded paddy conditions; type: in vivo, Echinochloa oryzoides; conditions: postemergence weeds, 3-4 weeks after treatment
Method in brief: (§4)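 Herbicidal effect is judged by eye on a 0–9 scale versus control, 3–4 weeks after dosing. Dosing is into flood water kept 1.5–3 cm over the soil, at about 0.0313–0.500 kg/ha in aqueous/acetone 50/50 v/v, on 3–5 cm weeds and 1.5–2.5-leaf rice seedlings.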

CYPSE (Flatsedge) [9] = assay: as above; type: in vivo, Cyperus serotinus; conditions: postemergence weeds, 3-4 weeks after treatment
Method in brief: as §4

CCOC(=O)CCN1C(=O)CSC1=Nc1cc(-n2c(=O)cc(C(F)(F)F)n(C)c2=O)c(Cl)cc1Cl [Compound 32, Ethyl 2-{{2,4-dichloro-5-[3,6-dihydro-3-methyl-2,6-dioxo-4-(trifluoromethyl)-1(2H)-pyrimidinyl]-phenyl}imino}-4-oxo-3-thiazolidinepropionate]
1.5: Preemergence herbicidal rating ORYSAT (ORYSAT (Rice, Tebonnet); rate 0.2500 kg/ha)
1.0: Preemergence herbicidal rating IPOHE ([3]; rate 0.5000 kg/ha) | Preemergence herbicidal rating TRZAWR ([4]; rate 0.2500 kg/ha)
5.5: Preemergence herbicidal rating AMBEL (AMBEL (Ragweed, Common); rate 0.2500 kg/ha)
0.5: Preemergence herbicidal rating AMBEL (AMBEL (Ragweed, Common); rate 0.0313 kg/ha) | Preemergence herbicidal rating AMBEL (AMBEL (Ragweed, Common); rate 0.0625 kg/ha) | Preemergence herbicidal rating AMBEL (AMBEL (Ragweed, Common); rate 0.1250 kg/ha) | Preemergence herbicidal rating IPOHE ([3]; rate 0.0625 kg/ha) | Preemergence herbicidal rating IPOHE ([3]; rate 0.1250 kg/ha) | Preemergence herbicidal rating ZEAMX (ZEAMX (Corn, Field) [5]; rate 0.1250 kg/ha)
6.0: Postemergence herbicidal rating ZEAMX (ZEAMX (Corn, Field) [1]; Rate 0.0313 kg/ha) | Preemergence herbicidal rating ZEAMX (ZEAMX (Corn, Field) [5]; rate 0.5000 kg/ha) | Herbicidal rating ECHORC ([6]; 0.2500 kg/ha) | Herbicidal rating ECHORC ([8]; rate 0.2500 kg/ha)
7.0: Postemergence herbicidal rating ZEAMX (ZEAMX (Corn, Field) [1]; Rate 0.0625 kg/ha) | Postemergence herbicidal rating ZEAMX (ZEAMX (Corn, Field) [1]; Rate 0.1250 kg/ha)
3.0: Postemergence herbicidal rating CASOB (CASOB (Sicklepod); Rate 0.1250 kg/ha) | Preemergence herbicidal rating TRZAWR ([4]; rate 0.5000 kg/ha) | Herbicidal rating ECHORC ([6]; 0.1250 kg/ha) | Herbicidal rating ECHORC ([8]; rate 0.1250 kg/ha)
4.5: Preemergence herbicidal rating CHEAL ([2]; rate 0.0156 kg/ha) | Preemergence herbicidal rating CHEAL ([2]; rate 0.0313 kg/ha) | Preemergence herbicidal rating ZEAMX (ZEAMX (Corn, Field) [5]; rate 0.2500 kg/ha)
2.0: Postemergence herbicidal rating GALAP (GALAP (Galium); Rate 0.1250 kg/ha)
0.0: Postemergence herbicidal rating CASOB (CASOB (Sicklepod); Rate 0.0158 kg/ha) | Postemergence herbicidal rating CASOB (CASOB (Sicklepod); Rate 0.0313 kg/ha) | Postemergence herbicidal rating CASOB (CASOB (Sicklepod); Rate 0.0625 kg/ha) | Postemergence herbicidal rating GALAP (GALAP (Galium); Rate 0.0158 kg/ha) | Postemergence herbicidal rating GALAP (GALAP (Galium); Rate 0.0313 kg/ha) | Postemergence herbicidal rating GALAP (GALAP (Galium); Rate 0.0625 kg/ha) | Preemergence herbicidal rating AMBEL (AMBEL (Ragweed, Common); rate 0.0156 kg/ha) | Preemergence herbicidal rating IPOHE ([3]; rate 0.0156 kg/ha) | Preemergence herbicidal rating IPOHE ([3]; rate 0.0313 kg/ha) | Preemergence herbicidal rating IPOHE ([3]; rate 0.2500 kg/ha) | Preemergence herbicidal rating ORYSAT (ORYSAT (Rice, Tebonnet); rate 0.0156 kg/ha) | Preemergence herbicidal rating ORYSAT (ORYSAT (Rice, Tebonnet); rate 0.0313 kg/ha) | Preemergence herbicidal rating ORYSAT (ORYSAT (Rice, Tebonnet); rate 0.0625 kg/ha) | Preemergence herbicidal rating ORYSAT (ORYSAT (Rice, Tebonnet); rate 0.1250 kg/ha) | Preemergence herbicidal rating TRZAWR ([4]; rate 0.0156 kg/ha) | Preemergence herbicidal rating TRZAWR ([4]; rate 0.0313 kg/ha) | Preemergence herbicidal rating TRZAWR ([4]; rate 0.0625 kg/ha) | Preemergence herbicidal rating TRZAWR ([4]; rate 0.1250 kg/ha) | Preemergence herbicidal rating ZEAMX (ZEAMX (Corn, Field) [5]; rate 0.0156 kg/ha) | Preemergence herbicidal rating ZEAMX (ZEAMX (Corn, Field) [5]; rate 0.0313 kg/ha) | Preemergence herbicidal rating ZEAMX (ZEAMX (Corn, Field) [5]; rate 0.0625 kg/ha) | Herbicidal rating CYPIR (CYPIR (Rice Flatsedge); 0.1250 kg/ha) | Herbicidal rating CYPIR (CYPIR (Rice Flatsedge); 0.2500 kg/ha) | Herbicidal rating CYPSE (CYPSE (Flatsedge) [7]; 0.1250 kg/ha) | Herbicidal rating CYPSE (CYPSE (Flatsedge) [7]; 0.2500 kg/ha) | Herbicidal rating CYPSE (CYPSE (Flatsedge) [9]; rate 0.1250 kg/ha) | Herbicidal rating CYPSE (CYPSE (Flatsedge) [9]; rate 0.2500 kg/ha)
4.0: Postemergence herbicidal rating ZEAMX (ZEAMX (Corn, Field) [1]; Rate 0.0158 kg/ha) | Preemergence herbicidal rating ORYSAT (ORYSAT (Rice, Tebonnet); rate 0.5000 kg/ha)
9.0: Preemergence herbicidal rating AMBEL (AMBEL (Ragweed, Common); rate 0.5000 kg/ha) | Preemergence herbicidal rating CHEAL ([2]; rate 0.0625 kg/ha) | Preemergence herbicidal rating CHEAL ([2]; rate 0.1250 kg/ha) | Preemergence herbicidal rating CHEAL ([2]; rate 0.2500 kg/ha) | Preemergence herbicidal rating CHEAL ([2]; rate 0.5000 kg/ha)

CCOP(=O)(CN1C(=O)CSC1=Nc1cc(-n2c(=O)cc(C(F)(F)F)n(C)c2=O)c(F)cc1Cl)OCC [Compound 35, Diethyl {{2-{{2-chloro-5-[3,6-dihydro-3-methyl-2,6-dioxo-4-(trifluoromethyl)-1(2H)-pyrimidinyl]-4-fluorophenyl}imino}-4-oxo-3-thiazolidinyl}methyl}phosphonate]
0.0: Postemergence herbicidal rating CASOB (CASOB (Sicklepod); Rate 0.0158 kg/ha) | Preemergence herbicidal rating AMBEL (AMBEL (Ragweed, Common); rate 0.0625 kg/ha) | Preemergence herbicidal rating IPOHE ([3]; rate 0.0625 kg/ha) | Preemergence herbicidal rating ORYSAT (ORYSAT (Rice, Tebonnet); rate 0.0625 kg/ha) | Preemergence herbicidal rating ORYSAT (ORYSAT (Rice, Tebonnet); rate 0.1250 kg/ha) | Preemergence herbicidal rating ORYSAT (ORYSAT (Rice, Tebonnet); rate 0.2500 kg/ha) | Preemergence herbicidal rating TRZAWR ([4]; rate 0.0625 kg/ha) | Preemergence herbicidal rating ZEAMX (ZEAMX (Corn, Field) [5]; rate 0.0625 kg/ha) | Preemergence herbicidal rating ZEAMX (ZEAMX (Corn, Field) [5]; rate 0.1250 kg/ha) | Preemergence herbicidal rating ZEAMX (ZEAMX (Corn, Field) [5]; rate 0.2500 kg/ha) | Herbicidal rating CYPIR (CYPIR (Rice Flatsedge); 0.1250 kg/ha) | Herbicidal rating CYPIR (CYPIR (Rice Flatsedge); 0.2500 kg/ha) | Herbicidal rating CYPSE (CYPSE (Flatsedge) [7]; 0.1250 kg/ha) | Herbicidal rating CYPSE (CYPSE (Flatsedge) [7]; 0.2500 kg/ha) | Herbicidal rating CYPSE (CYPSE (Flatsedge) [9]; rate 0.1250 kg/ha) | Herbicidal rating CYPSE (CYPSE (Flatsedge) [9]; rate 0.2500 kg/ha)
9.0: Postemergence herbicidal rating CASOB (CASOB (Sicklepod); Rate 0.0630 kg/ha) | Preemergence herbicidal rating AMBEL (AMBEL (Ragweed, Common); rate 0.2500 kg/ha) | Preemergence herbicidal rating CHEAL ([2]; rate 0.0625 kg/ha) | Preemergence herbicidal rating CHEAL ([2]; rate 0.1250 kg/ha) | Preemergence herbicidal rating CHEAL ([2]; rate 0.2500 kg/ha) | Preemergence herbicidal rating IPOHE ([3]; rate 0.2500 kg/ha)
4.0: Postemergence herbicidal rating GALAP (GALAP (Galium); Rate 0.0158 kg/ha)
4.5: Postemergence herbicidal rating ZEAMX (ZEAMX (Corn, Field) [1]; Rate 0.0630 kg/ha)
1.0: Preemergence herbicidal rating TRZAWR ([4]; rate 0.1250 kg/ha)
3.0: Postemergence herbicidal rating CASOB (CASOB (Sicklepod); Rate 0.0315 kg/ha) | Preemergence herbicidal rating AMBEL (AMBEL (Ragweed, Common); rate 0.1250 kg/ha) | Preemergence herbicidal rating IPOHE ([3]; rate 0.1250 kg/ha) | Preemergence herbicidal rating TRZAWR ([4]; rate 0.2500 kg/ha) | Herbicidal rating ECHORC ([6]; 0.1250 kg/ha) | Herbicidal rating ECHORC ([8]; rate 0.1250 kg/ha)
5.0: Postemergence herbicidal rating GALAP (GALAP (Galium); Rate 0.0315 kg/ha) | Postemergence herbicidal rating GALAP (GALAP (Galium); Rate 0.0630 kg/ha)
3.5: Postemergence herbicidal rating ZEAMX (ZEAMX (Corn, Field) [1]; Rate 0.0158 kg/ha) | Postemergence herbicidal rating ZEAMX (ZEAMX (Corn, Field) [1]; Rate 0.0315 kg/ha)
6.0: Herbicidal rating ECHORC ([6]; 0.2500 kg/ha) | Herbicidal rating ECHORC ([8]; rate 0.2500 kg/ha)
